In PubChem BioAssay AID743491 (The Scripps Research Institute Molecular Screening Center, 2014):
Active and inactive are the calls of the source. The rule behind the calls is not given here.

molecular target: Trace amine-associated receptor 1 (Homo sapiens) (UniProt Q96RJ0); assay: activators of human TAAR1 signalling – cell-based, fluorescence, MedChem round 1, dose response (AID 743491); conditions: cells expressing human TAAR1, fluorescence agonist read-out
Sequence (Q96RJ0 whole entry, looked up): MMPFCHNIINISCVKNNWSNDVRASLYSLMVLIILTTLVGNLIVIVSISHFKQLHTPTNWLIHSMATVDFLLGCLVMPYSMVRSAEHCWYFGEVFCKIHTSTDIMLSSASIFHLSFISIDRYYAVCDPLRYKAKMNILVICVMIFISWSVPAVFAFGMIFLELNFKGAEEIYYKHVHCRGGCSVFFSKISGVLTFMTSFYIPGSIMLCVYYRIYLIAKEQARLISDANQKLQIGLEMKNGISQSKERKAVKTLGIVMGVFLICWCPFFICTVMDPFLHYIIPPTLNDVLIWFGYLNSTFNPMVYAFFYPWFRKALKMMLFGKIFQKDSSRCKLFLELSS

Structure (SMILES)	EC50
O=C(CCN1CCC(O)(c2ccccc2)C1)c1ccc2c(c1)OCCO2 (stereo unspecified)	> 29900 nM (inactive)
NC(=O)CCN1C[C@H](c2ccccc2)[C@@H]2[C@H]1C1CCN2CC1	> 29900 nM (inactive)
O=C(CCN1CCC(O)(c2ccc(F)cc2)C1)c1ccc2c(c1)OCCO2 (stereo unspecified)	> 29900 nM (inactive)
CC(CN1CCCC1Cc1ccccc1)C(=O)c1ccc2c(c1)OCCO2 (stereo unspecified)	678 nM
CC(CN1CCC(c2ccccc2)C1)C(=O)c1ccc2c(c1)OCCO2 (stereo unspecified)	inactive

Other lines, results leading:

EC50	Structure (SMILES)
> 29900 nM (inactive)	O=C(CCN1C[C@@H](C(=O)O)[C@H](c2ccccc2)C1)NC1CCCC1
174 nM	O=C(CCN1CCC(c2ccccc2)C1)c1ccccc1 (stereo unspecified)
378 nM	CC1CN(CCC(=O)c2ccc3c(c2)OCCO3)CC1c1ccccc1 (stereo unspecified)
> 29900 nM (inactive)	O=C(CCN1C[C@@H](C(=O)O)[C@H](c2cccc(F)c2)C1)NC1CC1
114 nM	Cc1ccc(C(=O)CCN2CCC(c3ccccc3)C2)cc1 (stereo unspecified)
> 29900 nM (inactive)	O=C(CCN1C[C@@H](C(=O)O)[C@H](c2ccccc2)C1)NCc1cccs1
